Assays:
GPR5 = test: Cell-based cAMP for Gi coupled target GPCRs, co-transfection with signal enhancer TSHR-A623I; set-up: species or system human; conditions: FIG. 2
Source text: (§1) A Gi coupled receptor is known to inhibit adenylyl cyclase, and, therefore, decrease the level of cAMP production, which can make assessment of cAMP levels challenging. An effective technique in measuring the decrease in production of cAMP as an indication of constitutive activation of a receptor that predominantly couples Gi upon activation can be accomplished by co-transfecting a signal enhancer, e.g., a non-endogenous, constitutively activated receptor that predominantly couples with Gs upon activation (e.g., TSHR-A623I, disclosed below), with the Gi linked GPCR (such a technique is exemplified herein with the Gi coupled receptor, GPR24). As is apparent, constitutive activation of a Gs coupled receptor can be determined based upon an increase in production of cAMP. Constitutive activation of a Gi coupled receptor leads to a decrease in production cAMP. Thus, the co-transfection approach is intended to advantageously exploit these “opposite” affects. For example, co-transfection of a non-endogenous, constitutively activated Gs coupled receptor (the “signal enhancer”) with the endogenous Gi coupled receptor (the “target receptor”) provides a baseline cAMP signal (i.e., although the Gi coupled receptor will decrease cAMP levels, this “decrease” will be relative to the substantial increase in cAMP levels established by constitutively activated Gs coupled signal enhancer). By then co-transfecting the signal enhancer with a constitutively activated version of the target receptor, cAMP would be expected to further decrease (relative to base line) due to the increased functional activity of the Gi target (i.e., which decreases cAMP).
(§2) TSHR is a Gs coupled GPCR that causes the accumulation of cAMP upon activation. TSHR was constitutively activated by mutating amino acid residue 623 (i.e., changing an alanine residue to an isoleucine residue). See, SEQ.ID.NO.:402 for nucleic acid sequence and SEQ.ID.NO.:403 for deduced amino acid sequence. A Gi coupled receptor is expected to inhibit adenylyl cyclase, and, therefore, decrease the level of cAMP production, which can make assessment of cAMP levels challenging. An effective technique for measuring the decrease in production of cAMP as an indication of constitutive activation of a Gi coupled receptor can be accomplished by co-transfecting, most preferably, non-endogenous, constitutively activated TSHR (TSHR-A623I) (or an endogenous, constitutively active Gs coupled receptor) as a “signal enhancer” with a Gi linked target GPCR, such as GPR24, to establish a baseline level of cAMP. Upon creating a non-endogenous version of the Gi coupled receptor, this non-endogenous version of the target GPCR is then co-transfected with the signal enhancer, and it is this material that can be used for screening. We utilized such approach to effectively generate a signal when a cAMP assay is used; this approach is preferably used in the direct identification of candidate compounds against Gi coupled receptors. It is noted that for a Gi coupled GPCR, when this approach is used, an inverse agonist of the target GPCR will increase the cAMP signal and an agonist will decrease the cAMP signal.
(§3) On day one, 2×10^4 Hek-293 and Hek-293T cells/well were plated out. On day two, two reaction tubes were prepared (the proportions to follow for each tube are per plate): tube A was prepared by mixing 2 μg DNA of each receptor transfected into the mammalian cells, for a total of 4 μg DNA (e.g., pCMV vector; pCMV vector with mutated THSR (TSHR-A623I); TSHR-A623I and GPR24, etc.) in 1.2 ml serum free DMEM (Irvine Scientific, Irvine, Calif.); tube B was prepared by mixing 120 μl lipofectamine (Gibco BRL) in 1.2 ml serum free DMEM. Tubes A and B were then admixed by inversion (several times), followed by incubation at room temperature for 30–45 min. The admixture is referred to as the “transfection mixture”. Plated Hek-293 cells were washed with 1×PBS, followed by addition of 10 ml serum free DMEM. […]

GPR24 [1] = test: as above; set-up: species or system human; conditions: FIG. 1; for decrease in cAMP production compared to TSHR-A623I with endogenous GPR24 (GPR24 wt): co-transfected with TSHR-A623I; for cAMP production: cells co-transfected with TSHR-A623I, in the presence of TSH
Source text: as §1, §2, §3

GPR24 [2] = test: Intracellular IP3 accumulation assay (Gq-associated receptors); assay type: cell-based, human; conditions: FIG. 4
Procedure: On day 1, cells comprising the receptors (endogenous and/or non-endogenous) can be plated onto 24 well plates, usually 1×10^5 cells/well (although this number can be optimized. On day 2 cells can be transfected by firstly mixing 0.25 μg DNA in 50 μL serum free DMEM/well and 2 μL lipofectamine in 50 μl serum-free DMEM/well. The solutions are gently mixed and incubated for 15–30 min at room temperature. Cells are washed with 0.5 ml PBS and 400 μl of serum free media is mixed with the transfection media and added to the cells. The cells are then incubated for 3–4 hrs at 37° C./5% CO2 and then the transfection media is removed and replaced with 1 ml/well of regular growth media. On day 3 the cells are labeled with ^3H-myo-inositol. Briefly, the media is removed and the cells are washed with 0.5 ml PBS. Then 0.5 ml inositol-free/serum free media (GIBCO BRL) is added/well with 0.25 μCi of ^3H-myo-inositol/well and the cells are incubated for 16–18 hrs o/n at 37° C./5% CO2. On Day 4 the cells are washed with 0.5 ml PBS and 0.45 ml of assay medium is added containing inositol-free/serum free media 10 μM pargyline 10 mM lithium chloride or 0.4 ml of assay medium and 50 μL of 10× ketanserin (ket) to final concentration of 10 μM. The cells are then incubated for 30 min at 37° C. […]

Molecule	cAMP production (GPR5; cells co-transfected with TSHR-A623I, in the presence of TSH) [pmol cAMP/well]	decrease in production of cAMP against pCMV co-transfected with TSHR-A623I (GPR5; reference pCMV + TSHR-A623I 106.75 pmol cAMP/well) [%]	decrease in cAMP production compared to TSHR-A623I with endogenous GPR24 (GPR24 wt) (GPR24 [1]) [%]	increase in IP3 accumulation compared to the endogenous version of GPR24 (GPR24 wt) (GPR24 [2]) [%]	cAMP production (GPR24 [1]) [pmol cAMP/well]
GPR5 wt: endogenous target receptor GPR5	58.79	~45			
I261Q: non-endogenous version of the human GPR24 receptor with I261Q mutation (SEQ.ID.NO.:387)			~27	~32	
GPR24 wt: endogenous human GPR24 (also known as MCH or SLC-1) receptor [reference compound]					336.5
24-IC3-SST2: non-endogenous human GPR24 in which the IC3 loop is replaced with that of SST2 (SEQ.ID.NO.:359) (protein, listed as Homo sapiens) MDLEASLLPTGPNASNTSDGPDNLTSAGSPPRTGSISYINIIMPSVFGTICLLGIIGNSTVIFAVVKKSKLHWCNNVPDIFIINLSVVDLLFLLGMPFMIHQLMGNGVWHFGETMCTLITAMDANSQFTSTYILTAMAIDRYLATVHPISSTKFRKPSVATLVICLLWALSFISITPVWLYARLIPFPGGAVGCGIRLPNPDTDLYWFTLYQFFLAFALPFVVITAAYVRILQKVKSSGIRVGSSKRKKSEKKVTRTAIAICLVFFVCWAPYYVLQLTQLSISRPTLTFVYLYNAAISLGYANSCLNPFVYIVLCETFRKRLVLSVKPAAQGQLRAVSNAQTADEERTESKGTYFPCHPAHLQVRAPQHATGRDAEKNPRPLGKCRKAGLGVVAMKIHSMGSHVAGEAWSQVWGFQISEIPWGSRMRPLDRTEAEQENMLVWITGC			~22	~27	262.266
